The source of these data is US12723023B2, “Ionizable cationic lipids for RNA delivery” (Arcturus Therapeutics, Inc., priority 2021, dated 2026).

A short description of one data set: Mouse plasma stability. The class given is in vitro ADME, CD-1 mouse. Particulars: 1 μM lipid. The protocol:
Lipid stock solution was prepared by dissolution of the lipid in isopropanol at the concentration of 5 mg/mL. A requisite volume of the lipid-isopropanol solution was then diluted to 100 μM concentration at a total volume of 1.0 mL with in 50:50 (v/v) ethanol/water. Ten microliters of this 100 μM solution was spiked into 1.0 mL of mouse plasma (BioIVT, Cat. No.: MSE00PLNHUNN, CD-1 mouse, anticoagulant: sodium heparin, not filtered) that was pre-warmed to 37° C. and was stirred at 50 rpm with a magnetic stir bar. The starting concentration of lipids in plasma was thus 1 μM. At time points 0, 15, 30, 45, 60 and 120 min, 0.1 mL of the plasma was withdrawn from the reaction mixture and the protein was precipitated by adding 0.9 mL of ice-cold 4:1 (v/v) acetonitrile/methanol with 1 μg/mL of a selected internal standard lipid added. After filtration through a 0.45 micron 96-well filtering plate, the filtrates were analyzed by LC-MS (Thermo Fisher's Vanquish UHPLC-LTQ XL linear ion trap Mass Spectrometer); Waters XBridge BEH Shield RP18 2.5 micron (2.1×100 mm) column with its matching guard column. Mobile phase A was 0.1% formic acid in water, and mobile phase B was 0.1% formic acid in 1:1 (v/v) acetonitrile/methanol. Flow rate was 0.5 ml/min. Elution gradient was: Time 0-1 min: 10% B; 1-6 min: 10%-95% B; 6-8.5 min: 95% B; 8.5-9 min: 95%-10% B; 9-10 min: 10% B. Mass spectrometry was in positive scanning mode from 600-1100 m/z. The peak of the molecular ion of the lipids was integrated in the extracted ion chromatography (XIC) using Xcalibur software (Thermo Fisher). The relative peak area compared to T=0, after normalization by the peak area of the internal standard, was used as the percentage of the lipid remaining at each time point. T1/2 values were calculated using the first-order decay model.

Data set [1] is described as follows: In vivo biodegradability assay (lipid concentration in mouse liver by LC-MS). Further details: species or system mice. As to conditions: BLOQ: below level of quantification; for In vivo degradability (ng tissue) at 48 h 0.1 mpk: Table 1, 0.1 mpk; for In vivo degradability (ng/tissue) at 48 h 0.1 mpk: Table 2, 0.1 mpk.
Description: In vivo biodegradability assay was performed to assess the biodegradability of lipids in the LNP. Briefly, mice were injected with either 0.1 or 0.03 mg/Kg dose and after 24 or 48 hours mice livers were collected. To measure the concentration of lipids in the mouse liver, liver samples were homogenized in appropriate buffer in 1-10 dilution and mixed with the same amount of stabilized plasma. The samples were then mixed with organic solvents spiked with internal standard to precipitate proteins. After centrifugation, supernatant was diluted further with organic solvent before sample analysis by LC-MS. In LC-MS analysis, positive electrospray ionization was used, and multiple reaction monitoring (MRM) parameters were set up to specifically target the lipid analyte and internal standard. Calibration standards were prepared in stabilized plasma and mixed with same amount of homogenization buffer before protein precipitation. Quality control samples with known amounts of lipid was prepared in blank liver homogenate to monitor the precision and accuracy of the assay.
A further data set concerns hEPO. Kind of data set: hEPO mRNA expression evaluation (hEPO-LNPs, serum hEPO by ELISA). It is filed as in vivo, Balb/c mice. Particulars: serum after 6 hr; for EPO exprssn (ng/mL) 0.03 mpk: 0.03 mpk hEPO-LNP intravenously; for EPO exprssn (ng/mL) 0.1 mpk: 0.1 mpk hEPO-LNP intravenously. The protocol: Lipid formulations comprising a hEPO mRNA below were evaluated for their ability to express hEPO in vivo according to the protocol of this example. All animal experiments were conducted using institutionally-approved protocols (IACUC). In this protocol, female Balb/c mice at least 6-8 weeks of age were purchased from Charles River Laboratory. The mice were intravenously injected with hEPO-LNPs via the tail vein with one of two dose levels of hEPO (0.1 and 0.03 mg/kg). After 6 hr, blood was collected with serum separation tubes, and the serum was isolated by centrifugation. Serum hEPO levels were then measured using an ELISA assay (Human Erythropoietin Quantikine IVD ELISA Kit, R&D Systems, Minneapolis, MD).

As to `CCC1CCC(C(=O)OCC(COC(=O)C2CCC(CC)CC2)OC(=O)CCCN(CCCC(=O)OC(COC(=O)C2CCC(CC)CC2)COC(=O)C2CCC(CC)CC2)C(=O)SCCCN(C)C)CC1` (centres unmarked) [LIPID 16, ((4,4′-((((3-(Dimethylamino)propyl)thio)carbonyl)azanediyl)bis(butanoyl))bis(oxy))bis(propane-2,1,3-triyl) tetrakis(4-ethylcyclohexane-1-carboxylate)], the “Plasma half life % remaining after 2 h” value is on record as 40% in “Mouse plasma stability” (Table 1, 37° C.) and 40% in the data set “Mouse plasma stability” (Table 2, 37° C.). Besides, the “In vivo degradability (ng/tissue) at 48 h 0.03 mpk” value is reported as <340 ng/tissue in data set [1] (Table 1, 0.03 mpk) and <340 ng/tissue in data set [1] (Table 2, 0.03 mpk). In data set [1], the “In vivo degradability (ng tissue) at 48 h 0.1 mpk” value is <340 ng tissue. Moreover, the “In vivo degradability (ng/tissue) at 48 h 0.1 mpk” value in data set [1] is given as <340 ng/tissue. The “EPO exprssn (ng/mL) 0.03 mpk” value with hEPO (Table 1) is recorded as 2088 ng/mL. Also, the figures for the “EPO exprssn (ng/mL) 0.1 mpk” value in the data set on hEPO (Table 1) and with hEPO (Table 2) were 6358 ng/mL and 2088 ng/mL, respectively.

Take `CC(CC1CCCCC1)C(=O)OCC(COC(=O)C(C)CC1CCCCC1)OC(=O)CCCN(CCCC(=O)OC(COC(=O)C(C)CC1CCCCC1)COC(=O)C(C)CC1CCCCC1)C(=O)SCCCN(C)C` (centres unmarked) [LIPID 17, ((4,4′-((((3-(Dimethylamino)propyl)thio)carbonyl)-azanediyl)bis(butanoyl))bis(oxy))bis(propane-2,1,3-triyl) tetrakis(3-cyclohexyl-2-methylpropanoate)]: in “Mouse plasma stability” (Table 2, 37° C.), the “Plasma half life % remaining after 2 h” value is 100%. The “In vivo degradability (ng/tissue) at 48 h 0.03 mpk” value in data set [1] (Table 1, 0.03 mpk) is given as “BLOQ”. Also, in data set [1], the “In vivo degradability (ng tissue) at 48 h 0.1 mpk” value was “BLOQ” and the “In vivo degradability (ng/tissue) at 48 h 0.1 mpk” value was “BLOQ”. Also, the “In vivo degradability (ng/tissue) at 48 h 0.03 mpk” value in data set [1] (Table 2, 0.03 mpk) is recorded as “BLOQ”. In the data set with hEPO (Table 1), the “EPO exprssn (ng/mL) 0.03 mpk” value turned out to be 1082 ng/mL and the “EPO exprssn (ng/mL) 0.1 mpk” value is reported as 1555 ng/mL. In addition, the “EPO exprssn (ng/mL) 0.1 mpk” value in the data set with hEPO (Table 2) was determined as 1082 ng/mL.

Turning to `CN(C)CCCSC(=O)N(CCCC(=O)OC(COC(=O)C1CC2CCCCC2C1)COC(=O)C1CC2CCCCC2C1)CCCC(=O)OC(COC(=O)C1CC2CCCCC2C1)COC(=O)C1CC2CCCCC2C1` (centres unmarked) [LIPID 28], the “Plasma half life % remaining after 2 h” value in “Mouse plasma stability” (Table 2, 37° C.) stood at 100%. In addition, the “In vivo degradability (ng/tissue) at 48 h 0.03 mpk” value in data set [1] (Table 2, 0.03 mpk) is reported as “BLOQ”. Besides, the “In vivo degradability (ng/tissue) at 48 h 0.1 mpk” value in data set [1] is given as “BLOQ”.

Regarding `CN(C)CCCSC(=O)N(CCCC(=O)OC(COC(=O)C1CCC2CCCC2C1)COC(=O)C1CCC2CCCC2C1)CCCC(=O)OC(COC(=O)C1CCC2CCCC2C1)COC(=O)C1CCC2CCCC2C1` (centres unmarked) [LIPID 30, ((4,4′-((((3-(dimethylamino)propyl)thio)carbonyl)azanediyl)bis(butanoyl))bis(oxy))bis(propane-2,1,3-triyl) tetrakis(octahydro-1H-indene-5-carboxylate)], the “Plasma half life % remaining after 2 h” value in the data set “Mouse plasma stability” (Table 2, 37° C.) is 100%. Also, the “In vivo degradability (ng/tissue) at 48 h 0.03 mpk” value in data set [1] (Table 2, 0.03 mpk) is on record as “BLOQ”. Also, in data set [1], the “In vivo degradability (ng/tissue) at 48 h 0.1 mpk” value is given as “BLOQ”.
